Measurements taken from patent US20250051332A1 (priority 2022, published 2025).

Legend:
MOR = MOR (Homo sapiens, UniProt P35372); experiment: PDSP radioligand displacement binding; conditions: average of three independent trials
DOR = DOR (Homo sapiens, UniProt P41143); experiment: PDSP radioligand displacement binding; conditions: average of three independent trials
5-HT3 = target: T1, 5-HT3 (Homo sapiens, UniProt P46098); experiment: PDSP radioligand displacement binding; conditions: average of three independent trials
T1 sequence (P46098 24-478): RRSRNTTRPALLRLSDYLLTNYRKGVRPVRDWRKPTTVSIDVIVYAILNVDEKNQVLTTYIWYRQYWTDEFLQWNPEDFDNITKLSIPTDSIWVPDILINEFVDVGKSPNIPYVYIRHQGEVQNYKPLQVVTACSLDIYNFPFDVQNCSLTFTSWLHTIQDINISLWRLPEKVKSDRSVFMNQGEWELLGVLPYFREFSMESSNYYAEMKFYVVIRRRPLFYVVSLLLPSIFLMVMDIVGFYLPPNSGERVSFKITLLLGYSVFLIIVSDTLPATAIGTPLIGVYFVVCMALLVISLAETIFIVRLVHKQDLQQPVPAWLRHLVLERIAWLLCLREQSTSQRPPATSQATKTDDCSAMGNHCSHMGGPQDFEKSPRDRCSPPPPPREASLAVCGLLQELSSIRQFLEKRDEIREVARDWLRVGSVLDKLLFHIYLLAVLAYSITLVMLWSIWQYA

Alpha1A = target: T2, Alpha1A (Homo sapiens, UniProt P35348); experiment: PDSP radioligand displacement binding; conditions: average of three independent trials
T2 sequence (P35348 1-466): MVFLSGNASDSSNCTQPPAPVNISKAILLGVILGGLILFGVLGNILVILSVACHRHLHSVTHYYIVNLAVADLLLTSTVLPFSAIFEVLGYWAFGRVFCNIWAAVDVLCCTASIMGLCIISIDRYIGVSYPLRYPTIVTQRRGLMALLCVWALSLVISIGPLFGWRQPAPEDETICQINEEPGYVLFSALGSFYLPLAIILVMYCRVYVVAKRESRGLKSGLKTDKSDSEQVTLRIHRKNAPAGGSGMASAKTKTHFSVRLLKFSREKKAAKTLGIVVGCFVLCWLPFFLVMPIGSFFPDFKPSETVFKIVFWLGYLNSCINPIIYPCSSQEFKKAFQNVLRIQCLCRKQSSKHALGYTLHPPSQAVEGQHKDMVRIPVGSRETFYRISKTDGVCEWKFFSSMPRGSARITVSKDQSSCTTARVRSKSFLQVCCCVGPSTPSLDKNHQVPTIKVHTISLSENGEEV

Alpha1D = target: T3, Alpha1D (Homo sapiens, UniProt P25100); experiment: PDSP radioligand displacement binding; conditions: average of three independent trials
T3 sequence (P25100 1-572): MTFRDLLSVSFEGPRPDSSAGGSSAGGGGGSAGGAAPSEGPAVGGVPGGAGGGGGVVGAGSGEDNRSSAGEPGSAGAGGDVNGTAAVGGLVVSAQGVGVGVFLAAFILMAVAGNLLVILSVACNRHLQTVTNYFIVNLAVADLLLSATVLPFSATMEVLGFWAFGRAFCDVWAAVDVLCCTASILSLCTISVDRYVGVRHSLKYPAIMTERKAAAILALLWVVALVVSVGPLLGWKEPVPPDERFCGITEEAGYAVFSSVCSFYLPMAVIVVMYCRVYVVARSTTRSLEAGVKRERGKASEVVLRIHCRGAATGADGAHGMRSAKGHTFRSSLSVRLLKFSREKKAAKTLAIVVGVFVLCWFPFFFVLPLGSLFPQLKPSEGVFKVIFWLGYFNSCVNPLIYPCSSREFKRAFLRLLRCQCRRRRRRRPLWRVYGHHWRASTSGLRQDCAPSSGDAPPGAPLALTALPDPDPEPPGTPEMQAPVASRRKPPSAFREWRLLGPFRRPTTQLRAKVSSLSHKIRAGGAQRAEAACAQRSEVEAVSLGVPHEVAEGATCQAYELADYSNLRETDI

Alpha2C = target: T4, Alpha2C (Homo sapiens, UniProt P18825); experiment: PDSP radioligand displacement binding; conditions: average of three independent trials
T4 sequence (P18825 1-462): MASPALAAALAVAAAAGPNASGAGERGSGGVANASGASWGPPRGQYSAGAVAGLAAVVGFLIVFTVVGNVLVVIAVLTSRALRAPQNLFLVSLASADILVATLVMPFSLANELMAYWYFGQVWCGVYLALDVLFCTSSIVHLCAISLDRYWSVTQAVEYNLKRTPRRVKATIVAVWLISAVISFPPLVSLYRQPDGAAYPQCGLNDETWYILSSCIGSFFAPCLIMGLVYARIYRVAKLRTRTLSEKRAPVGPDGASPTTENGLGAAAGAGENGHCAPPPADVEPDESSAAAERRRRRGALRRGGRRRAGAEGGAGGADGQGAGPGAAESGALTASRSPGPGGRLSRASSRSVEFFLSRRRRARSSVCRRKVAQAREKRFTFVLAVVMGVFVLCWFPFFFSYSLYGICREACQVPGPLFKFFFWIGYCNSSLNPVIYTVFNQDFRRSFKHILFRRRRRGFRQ

κOR [1] = target: T5, κOR (Homo sapiens, UniProt P41145); experiment: cell-based; assay type: cell-based
T5 construct: host or cells: CHO-K1

κOR [2] = target: T5, κOR; experiment: Competitive radioligand binding with [3H]U69,593; conditions: radioligand displacement assay
μOR = target: T6, μOR (Homo sapiens, UniProt P35372); experiment: Competitive radioligand binding with [3H]DAMGO; conditions: radioligand displacement assay
T6 construct: host or cells: CHO-K1

KOR = KOR (Homo sapiens, UniProt P41145); experiment: PDSP radioligand displacement binding; conditions: average of three independent trials
CXCR7 = CXCR7 (Homo sapiens, UniProt P25106); experiment: CXCR7 agonism follow-up of the PRESTO-Tango screen; assay type: cell-based; conditions: weak agonist compared to the CXCR7 agonist VUF11207

For C/C=C1/CN2CC[C@]34C(=C(C(=O)OC)[C@H]1C[C@H]23)Nc1ccc(Br)cc14 [Compound 2, 10-Bromoakuammicine], the “Ki (nM) at MOR” value (MOR) was “— (“—” indicates compound produced less than 50% displacement of radioligand in primary binding screen at 10 μM.)”, the “Ki (nM) at DOR” value (DOR) was “— (“—” indicates compound produced less than 50% displacement of radioligand in primary binding screen at 10 μM.)” and the Ki (5-HT3) was 210 nM. The Ki (Alpha1A) was 1000 nM, the “Ki (nM) at Alpha1D” value (Alpha1D) was “— (“—” indicates compound produced less than 50% displacement of radioligand in primary binding screen at 10 μM.)” and the Ki (Alpha2C) was 2910 nM.
In the case of C/C=C1/CN2CC[C@]34C(=C(C(=O)OC)[C@H]1C[C@H]23)Nc1ccc(I)cc14 [Compound 3, 10-Iodoakuammicine], the “κOR cAMP inhibition pEC50 ± SEM” value (κOR [1]) is reported as 8.2 ± 0.1, the EC50 (κOR [1]; read-out: κOR cAMP inhibition EC50) is reported as 5.7 nM and the Ki (κOR [2]) is reported as 0.087 nM. The Ki (μOR) was 3600 nM, the Ki (KOR) was 1 nM and the “Ki (nM) at MOR” value (MOR) was “— (“—” indicates compound produced less than 50% displacement of radioligand in primary binding screen at 10 μM.)”. The “Ki (nM) at DOR” value (DOR) was “— (“—” indicates compound produced less than 50% displacement of radioligand in primary binding screen at 10 μM.)”, the Ki (5-HT3) was 384 nM and the Ki (Alpha1A) was 883 nM. For the same compound, the Ki (Alpha1D) was 1140 nM, the Ki (Alpha2C) was 2860 nM and the “concentration at which CXCR7 is activated” value (CXCR7) was greater than 3 µM.
